The values that follow come from patent US20240101563A1, “NOVEL COMPOUNDS” (AC Immune SA, priority 2022, published 2024).

Counter-ions that a name gives are not always drawn. Bounds are passed on as bounds.

Test [1] has as its system NLRP3 inflammasome pathway. As to the kind of experiment: NLRP3 inflammasome pathway activation assay, Nigericin stimulation, IL-1β HTRF. The test is classed as cell-based. The settings on record: Homo sapiens, 3 h, Table 7; PMA-differentiated, LPS-primed cells; Nigericin 3.75 μM for 3 h; IL-1β release; read-out: IC50 Human monocyte-like cells Nigericin. The method, then:
(§1) The following assays were used to determine the inhibitory activity of test compounds on the NLRP3 inflammasome pathway using common stimuli Nigericin (Invivogen) or monosodium urate crystals (MSU) (Invivogen).
(§2) Human monocyte-like cells were cultured in RPMI-1640 Glutamax medium supplemented with 10% heat inactivated FBS (Fetal Bovine Serum) and 50 U/mL penicillin-streptomycin (Life Technologies).
(§3) Human monocyte-like cells were seeded at 25000 per well in a 384-well plate and were differentiated overnight into macrophages with 10 ng/mL PMA (Phorbol Myristate Acetate). The following day, medium containing 10 ng/mL LPS (Lipopolysaccharide) was added. After 3 hours of LPS priming, concentrations of test compound in the range from […] were added 30 min prior to NLRP3 inflammasome pathway stimulation with Nigericin 3.75 μM or MSU 200 μg/mL for 3 h.
(§4) For IL-1p quantification, supernatants were analyzed using HTRF kit according to the manufacturer's instructions (Cisbio 62HIL1BPEH). Briefly, in a 384-well ProxiPlate™ microplate, 8 μl of sample was mixed, with 5 μl of Anti-IL1β Cryptate antibody (40×) and Anti-IL1β XL antibody (40×). Then, incubated overnight at RT. Reading was done using an EnVision Reader (PerkinElmer).
(§5) IC50 (concentration corresponding to 50% inhibition) were determined using GraphPad Prism 9.

In test [2] the test system is NLRP3 inflammasome pathway. As to the kind of experiment: NLRP3 inflammasome pathway activation assay, MSU stimulation, IL-1β HTRF. The test is classed as cell-based. The following applies: read-out: IC50 Human monocyte-like cells MSU. The method, then: as §1, §2, §3, §4, §5
[3] abbreviates: Homo sapiens, 3 h, Table 7, PMA-differentiated, LPS-primed cells, MSU 200 μg/mL for 3 h, IL-1β release.

`Cc1cc(C(F)(F)F)cc(O)c1-c1nc2nc(N[C@H]3CCCC[C@@H]3O)ccc2n1C` (single isomer, unassigned) [Example 20, 2-(5-((2-hydroxycyclohexyl)amino)-1-methyl-1H-imidazo[4,5-b]pyridin-2-yl)-3-methyl-5-(trifluoromethyl)phenol]: the figures for the IC50 in test [1] and in test [2] (setting [3]) were > 1000 nM and 100 to 1000 nM, respectively. `COc1ccc2c(n1)nc(-c1ccc(C(F)(F)F)cc1O)n2C` [Example 24, 2-(5-methoxy-1-methyl-1H-imidazo[4,5-b]pyridin-2-yl)-5-(trifluoromethyl)phenol]: the IC50 in test [1] is < 100 nM; in test [2] (setting [3]), 100 to 1000 nM. On the same counts, the results for `COc1ccc2c(n1)nc(-c1c(C)cc(Cl)cc1O)n2C` [Example 29, 5-chloro-2-(5-methoxy-1-methyl-1H-imidazo[4,5-b]pyridin-2-yl)-3-methylphenol] are 100 to 1000 nM and < 100 nM.

In the case of `Cc1cc(C(F)(F)F)cc(O)c1-c1nc2nc(O[C@@H]3CCCN(C)C3)ccc2n1C` [Example 26, (R)-3-methyl-2-(1-methyl-5-((1-methylpiperidin-3-yl)oxy)-1H-imidazo[4,5-b]pyridin-2-yl)-5-(trifluoromethyl)phenol], the IC50 is 100 to 1000 nM in test [1] and < 100 nM in test [2] (setting [3]).

`CCn1c(-c2ccc(C(F)(F)F)cc2O)nc2nc(NC3CCN(C)C3)ccc21` (single isomer, unassigned) [Example 9, 2-(1-ethyl-5-((1-methylpyrrolidin-3-yl)amino)-1H-imidazo[4,5-b]pyridin-2-yl)-5-(trifluoromethyl)phenol]: the IC50 in test [1] is 100 to 1000 nM; in test [2] (setting [3]) it was < 100 nM. On to `CNc1ccc2c(n1)nc(-c1c(C)cc(C(F)(F)F)cc1O)n2C` [Example 3, 3-methyl-2-(1-methyl-5-(methylamino)-1H-imidazo[4,5-b]pyridin-2-yl)-5-(trifluoromethyl) phenol], for which the IC50 in test [2] (setting [3]) is 100 to 1000 nM. On to `CC(C)n1c(-c2ccc(C(F)(F)F)cc2O)nc2nc(NCCO)ccc21` [Example 17, 2-(5-((2-hydroxyethyl)amino)-1-isopropyl-1H-imidazo[4,5-b]pyridin-2-yl)-5-(trifluoromethyl)phenol], for which the IC50 in test [2] (setting [3]) lay within 100 to 1000 nM.

With `Cc1cc(Cl)cc(O)c1-c1nc2nc(N3CC[C@@H]4CCN(C)C[C@@H]43)cnc2n1C` (relative stereo) [Example 77A, 5-chloro-3-methyl-2-[1-methyl-5-[rel-(3aS,7aR)-6-methyl-3,3a,4,5,7,7a-hexahydro-2H-pyrrolo[2,3-c]pyridin-1-yl]imidazo[4,5-b]pyrazin-2-yl]phenol], the IC50 in test [2] (setting [3]) is < 100 nM. Still for that read-out and setting: next, `Cc1cc(C(F)(F)F)cc(O)c1-c1nc2nc(N3CC(C)(O)C3)cnc2n1C` [Example 84, 1-(2-(2-hydroxy-6-methyl-4-(trifluoromethyl)phenyl)-1-methyl-1H-imidazo[4,5-b]pyrazin-5-yl)-3-methylazetidin-3-ol]: 100 to 1000 nM.

With `CN1CCC[C@@H](Nc2nc3nc(-c4ccc(C(F)(F)F)cc4O)ccc3n2C)C1` [Example 83, (R)-2-(1-methyl-2-((1-methylpiperidin-3-yl)amino)-1H-imidazo[4,5-b]pyridin-5-yl)-5-(trifluoromethyl)phenol], the IC50 in test [2] (Homo sapiens, 3 h, Table 8 (formula II′/II vs formula III), MSU 200 μg/mL for 3 h, IL-1β release) was > 1500 nM. `Cc1cc(C(F)(F)F)cc(O)c1-c1nc2nc(N3CCC(C)(O)CC3)cnc2n1C` [Example 75, 1-[2-[2-hydroxy-6-methyl-4-(trifluoromethyl)phenyl]-1-methyl-imidazo[4,5-b]pyrazin-5-yl]-4-methyl-piperidin-4-ol]: the IC50 in test [2] (Homo sapiens, 3 h) was in the range of 100 to 1000 nM. `Cc1cc(Cl)cc(O)c1-c1nc2nc(N3CCC4CCN(C)CC43)cnc2n1C` (racemic) [Example 76, 5-chloro-3-methyl-2-[1-methyl-5-(6-methyl-3,3a,4,5,7,7a-hexahydro-2H-pyrrolo[2,3-c]pyridin-1-yl)imidazo[4,5-b]pyrazin-2-yl]phenol]: the IC50 in test [2] (setting [3]) was < 100 nM. As to `Cc1cc(C(F)(F)F)cc(O)c1-c1nc2nc(NC3CCN(C)C3)ccc2n1C` (single isomer, unassigned) [Example 18A, 3-methyl-2-(1-methyl-5-((1-methylpyrrolidin-3-yl)amino)-1H-imidazo[4,5-b]pyridin-2-yl)-5-(trifluoromethyl)phenol], the IC50 in test [2] (setting [3]) was < 100 nM.

Turning to `CCn1c(-c2c(C)cc(Cl)cc2O)nc2nc(OC)ccc21` [Example 30, 5-chloro-2-(1-ethyl-5-methoxy-1H-imidazo[4,5-b]pyridin-2-yl)-3-methylphenol], the IC50 in test [2] (setting [3]) was 100 to 1000 nM.

Regarding `Cc1cc(Cl)cc(O)c1-c1nc2nc(N3CCC(O)CC3)cnc2n1C` [Example 78, 1-[2-(4-chloro-2-hydroxy-6-methyl-phenyl)-1-methyl-imidazo[4,5-b]pyrazine-5-yl]piperidin-4-ol], in test [2] (setting [3]), the IC50 is < 100 nM. `Cc1cc(Cl)cc(O)c1-c1nc2nc(N3CCC(O)C3)cnc2n1C` (single isomer, unassigned) [Example 85B]: the IC50 in test [2] (Table 7, PMA-differentiated, LPS-primed cells, MSU 200 μg/mL for 3 h, IL-1β release) was < 100 nM. In the case of `Cc1cc(C(F)(F)F)cc(O)c1-c1nc2nc(N[C@@H]3CCN(C)C3)c(F)cc2n1C` [Example 46, (R)-2-(6-fluoro-1-methyl-5-((1-methylpyrrolidin-3-yl)amino)-1H-imidazo[4,5-b]pyridin-2-yl)-3-methyl-5-(trifluoromethyl)phenol], the IC50 in test [2] (setting [3]) is < 100 nM. Same read-out and setting: the value for `Cc1cc(Cl)cc(O)c1-c1nc2nc(N3CCOCC3)c(F)cc2n1C` [Example 64, 5-chloro-2-(6-fluoro-1-methyl-5-morpholino-1H-imidazo[4,5-b]pyridin-2-yl)-3-methylphenol] was 100 to 1000 nM; that for `Cc1cc(Cl)cc(O)c1-c1nc2nc(C(F)(F)F)ccc2n1C` [Examples 50] was 100 to 1000 nM.

`CCn1c(-c2ccc(C(F)(F)F)cc2O)nc2nc(NCCO)ccc21` [Example 16, 2-(1-ethyl-5-((2-hydroxyethyl)amino)-1H-imidazo[4,5-b]pyridin-2-yl)-5-(trifluoromethyl)phenol]: the IC50 in test [2] (setting [3]) lay within 100 to 1000 nM. Take `COc1nc2nc(-c3c(C)cc(C(F)(F)F)cc3O)n(C)c2nc1CO` [Example 65, 2-(6-(hydroxymethyl)-5-methoxy-1-methyl-1H-imidazo[4,5-b]pyrazin-2-yl)-3-methyl-5-(trifluoromethyl)phenol]: in test [2] (setting [3]), the IC50 is < 100 nM.

Take `CC(C)n1c(-c2ccc(C(F)(F)F)cc2O)nc2nc(N[C@@H]3CCCN(C)C3)ccc21` [Example 13, (R)-2-(1-isopropyl-5-((1-methylpiperidin-3-yl)amino)-1H-imidazo[4,5-b]pyridin-2-yl)-5-(trifluoromethyl)phenol]: in test [2] (setting [3]), the IC50 lay in the range of 100 to 1000 nM. Still for that read-out and setting: next, `CN1CCC[C@@H](Nc2ccc3cn(-c4ccc(C(F)(F)F)cc4O)nc3n2)C1` [Example 40, (R)-2-(6-((1-methylpiperidin-3-yl)amino)-2H-pyrazolo[3,4-b]pyridin-2-yl)-5-(trifluoromethyl)phenol formate]: < 100 nM; `Cn1c(-c2ccc(C(F)(F)F)cc2O)nc2nc(O[C@H]3CC[C@H](O)C3)ccc21` (single isomer, unassigned) [Example 37A, trans-2-(5-((3-hydroxycyclopentyl)oxy)-1-methyl-1H-imidazo[4,5-b]pyridin-2-yl)-5-(trifluoromethyl)phenol]: 100 to 1000 nM.

As for `CN1CC[C@@H](Oc2ccc3c(n2)nc(-c2ccc(C(F)(F)F)cc2O)n3C)C1` [Example 27, (R)-2-(1-methyl-5-((1-methylpyrrolidin-3-yl)oxy)-1H-imidazo[4,5-b]pyridin-2-yl)-5-(trifluoromethyl)phenol], the IC50 in test [2] (setting [3]) is < 100 nM.
